US20240345090A1, “EARLY DETECTION OF INNATE IMMUNE DYSFUNCTION AND TREATMENT OF CONDITIONS ASSOCIATED THEREWITH” (UNIVERSITY OF FLORIDA RESEARCH FOUNDATION, INCORPORATED, priority 2021, published 2024)
“Also recorded” adds a separate entry of the source.

Key:
[1] = tested on: TH protein in human monocytes; assay: TH Bio-ELISA on lysates of treated monocytes; format: cell-based; conditions: healthy donor monocytes, 4 hours; TNFα 17 ng/ml, IL6 17 ng/ml, XPro1595 50 ng/ml
Experimental: Adherent cells in culture were lifted using 0.02% EDTA in PBS, diluted with 5 volumes of PBS, and centrifuged at 100×g. Non-adherent cells (PC12) were centrifuged at 100×g for 5 minutes at room temperature, and cell pellets were washed 3 times with 5 volumes of sterile PBS. Primary macrophages and primary murine neuron cultures were washed thrice with ice-cold PBS, on ice. Cell pellets and adherent primary cells were then lysed in ice-cold lysis buffer (10 mM NaCl, 10% glycerol (v/v), 1 mM EDTA, 1 mM EGTA, and HEPES 20 mM, pH 7.6), with Triton X-100 added to a final concentration of 1%, containing 1× protease inhibitor cocktail (Millipore-Sigma, 539131) for one hour at 4° C. with rotation. Resulting lysate was centrifuged at 12,000×g for 15 minutes at 4° C. Supernatant was set aside for protein quantification by Lowry assay (Biorad, 5000112) and the remainder was stored at −80° C. until use for downstream assays.
Antibodies used for ELISA are described in Table 4. […]
Duplicate standard and sample wells were averaged, and background-subtracted based on blank wells. The concentration of TH for each experimental group was calculated using a quadratic curve equation calculated in Graphpad Prism 8, then normalized to total protein concentration per sample as calculated using the Lowry assay. […]

CD14+ monocytes [2] = assay: Flow cytometry count of TH+ monocytes after in vitro treatment; format: cell-based, human; conditions: 4 hours, TNFα 17 ng/ml; for number of TH+ monocytes, fold change relative to vehicle: healthy donor monocytes, 2 million per well, TPA 100 ng/ml, IL6 17 ng/ml, XPro1595 50 ng/ml, n=3 per group
Experimental: Monocytes were isolated from total PBMCs prepared as described above^51 using negative selection (Biolegend, 480048) per manufacturer's instructions. Total PBMCs were Fc-blocked to reduce nonspecific binding, followed by incubations with biotin-conjugated antibody cocktail containing antibodies against all subsets except CD14 (negative selection), followed by incubation with magnetic-Avidin beads, allowing all subsets other than CD14+ monocytes to be bound to the magnet. Monocyte purity/enrichment was routinely verified to confirm that the final cell population was greater than 95% pure CD14+ cells (FIG. S2). CD14+ monocytes were collected from the supernatant fraction, washed, counted and density adjusted such that 2 million CD14+ monocytes were seeded per well (FIG. 5A) and treated for 4 hours with vehicle, TPA (100 ng/ml, Biolegend, 755802)^7, TNFα (17 ng/mL, Biolegend, 570102)^61, XPro1595 (50 ng/ml), or IL6 (17 ng/mL) in an ultra-low-adherence 6-well plate (Corning, 3471) to prevent adherence. Suspended cells from each treatment group were aspirated and placed in a 15 ml conical tube, with any remaining adherent cells detached by incubation with 700 uL Accumax solution for 3 minutes (Innovative Cell Technologies, AM105) and added to suspended cells. After pelleting cells by centrifugation (3 minutes×100 g, room temperature), cells were assayed by either flow cytometry^51 or lysed for ELISA as stated above (“Preparation of cell lysates”).
As previously published^51, cells for flow cytometry were fixed and permeabilized (eBioscience, 88-8824-00), and stained for intracellular marker TH (Millipore-Sigma, AB152, 1:100) followed by a species-specific secondary (anti-Rabbit BV421, BD, 565014). After resuspending the sample in a final volume of 250 uL PBS, 5 uL of Invitrogen CountBright Absolute Counting Beads (5000 beads/mL, Invitrogen, C36950) were added just prior to data acquisition (Sony Spectral Analyzer, SP6800). […]

CD14+ monocytes [3] = assay: Intracellular flow cytometry for Ki67 (cell proliferation); format: cell-based, human; conditions: TNFα treated monocytes
Experimental: To control for donor variability, identical quantities of counting beads were added as a reference. The number of TH+ monocytes was quantified by flow cytometry (FIG. 6B, left) in two experimental groups: TPA-treated and TNFα-treated. Monocytes in each condition were gated to isolate single cells expressing TH (FIG. 6B). […] A possible mechanism for this observation is either monocyte proliferation during the treatment period or an altered monocyte phenotype in response to TNFα, with no change in total number of monocytes. In other words, following TNFα treatment, TH+ monocytes may either be increasing in number (proliferation) or existing monocytes upregulate TH expression and become TH+ (phenotypic change). While a four-hour exposure to TNFα is an insufficient time period to induce proliferative events in immune cells^74, these possibilities could not be confidently ruled out without additional analyses. Therefore, monocyte proliferation was quantified by comparing the total number of monocytes per microliter of untreated vs. TNFα treated experimental group. […] A more rigorous approach was conducted to assess Ki67 expression as a measure of cell proliferation^87. […] While this finding explains our earlier observation of increased numbers of TH+ cells, the potential phenotypic shift following TNFα mediated immune stimulation was an unpredicted and novel finding.

monocytes = assay: Monocyte viability at different TNFα treatment durations; format: cell-based, human
Experimental: There is strong evidence in the literature for increased TNFα in PD^27,34-36 including in the brain, cerebrospinal fluid, and serum of Parkinson's patients^27 as well as in Parkinsonian mice^37,38. […] Therefore, the hypothesis that ex vivo stimulation of monocytes from healthy subjects with TNFα stimulates TH expression was tested, as measured by changes in the number of TH-expressing monocytes, and/or the amount of TH per monocyte. Flow cytometry was employed to address the former, and bio-ELISA to address the latter. Two million monocytes isolated from whole blood of healthy donors were treated for 4 hours with tissue plasminogen activator (TPA, 100 ng/ml, positive control for increased monocyte TH expression^7), TNFα (17 ng/mL)^61 and compared with monocytes treated with vehicle (FIG. 6A). Monocytes were assayed for TH expression by two complementary methods: flow cytometry^51 (FIG. 6B-F) and ELISA (FIG. 6G-H). It is noted that because a prolonged TNFα exposure can induce cell toxicity^82-86, multiple treatment durations were tested. […] Therefore, a 4-hour treatment strategy was selected in this study.

| Substance | TH concentration (picogram per milligram total protein) relative to vehicle [1] | number of TH+ monocytes, fold change relative to vehicle (CD14+ monocytes [2]) | total number of monocytes per microliter, untreated vs. treated (CD14+ monocytes [2]) | Ki67 expression relative to vehicle-treated controls (CD14+ monocytes [3]) | cell viability (monocytes; 4-hour TNFα (17 ng/ml) treatment) | cell viability (monocytes; longer TNFα exposure (more than 4 hours)) |
| --- | --- | --- | --- | --- | --- | --- |
| IL6: interleukin-6 (IL6), a cytokine with pleiotropic effects | Neither IL6 nor IL6+XPro1595 significantly increased TH quantity | no significant change in the number of TH+ monocytes |  |  |  |  |
| TNFα | significantly increased the amount of TH protein; also recorded: significantly increases | significant increases in TH-expressing monocytes relative to vehicle | unchanged | no change in Ki67 expression | minimal effect on cell viability | substantially decreased cell viability |
